Data reported in patent US9636348B2, “6-substituted estradiol derivatives for use in remyelination of nerve axons” (Endece LLC, priority 2011, dated 2017).

Columns and labels:
[1] = test system: Delta/notch-like EFG repeat (DNER); test: Expression profiling (Agilent microarray) in tumor cell lines: DNER; type: cell-based, human; conditions: 24 hours, treated vs untreated, average of SKOV-3, A549 and Panc-1
Protocol: (§1) The study includes three human tumor cell lines: A549, Panc-1, and SK-OV-3. The lines are each grown in two flasks cultured to roughly 40% confluence. One of the flasks is treated by addition of compound to the culture media at a various concentrations, i.e. 10 μM, 20 μM 50 μM, 100 μM or 200 μM. The other, mock treated, flask is treated only with the vehicle used to solubilize and deliver the drug. RNA extracted from the pairs of treated and untreated samples is subjected to microarray analysis on Agilent Whole Human Genome Microarrays (G4112F). Each analysis reports the difference in abundance of messenger RNAs for each of the 41,000 specific mRNA detectors on the array. This direct comparison of the treated versus untreated samples for each cell line provides extremely sensitive detection of changes in mRNA abundance resulting from the drug treatment. As each cell line comparison is self-normalized, the results can be compared across the samples with high confidence.
(§2) Three human tumor cell lines, A549, Panc-1, and SK-OV-3, are each grown in two flasks cultured to roughly 40% confluence. One of the flasks is treated by addition of compound to the culture media at concentrations of 10 μM, 50 μM and 100 μM. The other, mock treated, flask is treated only with the vehicle used to solubilize and deliver the drug. All flasks are cultured for a further 24 hours, and then the cells are scraped free and washed in ice-cold PBS, then collected by centrifugation. The harvested cells are immediately frozen, and stored at −80° C. or colder.
(§3) Total RNA is prepared from the frozen tissue samples using Trizol-based cell lysis followed by 65° C. hot phenol extraction and RNeasy chromatography purification. The purified RNA samples are analyzed spectrophotometrically. The concentration of RNA is determined by measuring the absorbance at 260 nm (A260). Given an absorbance of 1 unit at 260 nm corresponds to […].
(§4) All RNAs are labeled using 1 microgram of RNA as input to an Agilent Low Input Labeling reaction.
(§5) Test RNA is labeled with Cy5 (650 nm emitter) and reference RNA is labeled with Cy3 (550 nm emitter) nucleotides. Labeling, hybridizations and subsequent washings are carried out on Agilent H1Av2 human expression chips. The resulting hybridized chips are scanned on an Agilent microarray scanner, and intensity information for each detector spot is extracted from the scanned image using Agilent feature extraction software. […]
(§6) After the ratios have been calculated for the normalized data, the various control and duplicate samples are analyzed to build a model of how reproducible the results are, and how this reproducibility is varies depending on signal strength and noise. […]

[2] = test system: Oligodentrocyte lineage transcription factor 2 (OLIG2); test: Expression profiling (Agilent microarray) in tumor cell lines: OLIG2; type: cell-based, human; conditions: 24 hours, treated vs untreated, average of SKOV-3, A549 and Panc-1
Protocol: as §1, §2, §3, §4, §5, §6

[3] = test system: Myelin basic protein (variant 7) (MBP); test: Expression profiling (Agilent microarray) in tumor cell lines: MBP; type: cell-based, human; conditions: 24 hours, treated vs untreated, average of SKOV-3, A549 and Panc-1
Protocol: as §1, §2, §3, §4, §5, §6

[4] = test system: Myelin oligodentrocyte glycoprotein (variant alpha 4) (MOG); test: Expression profiling (Agilent microarray) in tumor cell lines: MOG; type: cell-based, human; conditions: 24 hours, treated vs untreated, average of SKOV-3, A549 and Panc-1
Protocol: as §1, §2, §3, §4, §5, §6

[5] = test system: Interleukin 23 receptor (IL23R); test: Expression profiling (Agilent microarray) in tumor cell lines: IL23R; type: cell-based, human; conditions: 24 hours, treated vs untreated, average of SKOV-3, A549 and Panc-1
Protocol: as §1, §2, §3, §4, §5, §6

[6] = test system: Transmembrane protein 108 (TMEM108); test: Expression profiling (Agilent microarray) in tumor cell lines: TMEM108; type: cell-based, human; conditions: 24 hours, treated vs untreated, average of SKOV-3, A549 and Panc-1
Protocol: as §1, §2, §3, §4, §5, §6

[7] = test system: Connexin (AF251047); test: Expression profiling (Agilent microarray) in tumor cell lines: Connexin; type: cell-based, human; conditions: 24 hours, treated vs untreated, average of SKOV-3, A549 and Panc-1
Protocol: as §1, §2, §3, §4, §5, §6

[8] = test system: Interleukin 20 receptor alpha (IL20RA); test: Expression profiling (Agilent microarray) in tumor cell lines: IL20RA; type: cell-based, human; conditions: 24 hours, treated vs untreated, average of SKOV-3, A549 and Panc-1
Protocol: as §1, §2, §3, §4, §5, §6

[9] = test system: Interleukin 28A (IL28A); test: Expression profiling (Agilent microarray) in tumor cell lines: IL28A; type: cell-based, human; conditions: 24 hours, treated vs untreated, average of SKOV-3, A549 and Panc-1
Protocol: as §1, §2, §3, §4, §5, §6

[10] = test system: genes in signaling pathways involved in proliferation and differentiation of OPCs; test: Expression profiling in tumor cell lines: overall statement; type: cell-based, human; conditions: SKOV-3, A549 and Panc-1 cells, Table 1
Protocol: as §1
Three human tumor cell lines, A549, Panc-1, and SK-OV-3, are each grown in two flasks cultured to roughly 40% confluence. […]
as §6

[11] = test system: oligodendrocyte precursor cells (OPCs); test: Oligodendrocyte differentiation assay (PLP-EGFP reporter); type: cell-based, mouse; conditions: for Potency in OPC differentiation (in words): 4 days, FIGS. 1 and 3
Protocol: OPC cultures are prepared as described Pedraza, C. E. et al., Glia 56(12), 1339-52 (2008), incorporated herein by reference. Brains are removed from E14.5 C57Bl6/J (expressing PLP-EGFP) mice (Mallon, B. S. et al., J. Neurosci 22(3), 876-85 (2002)), cleaned and cortical hemispheres are isolated. Tissue is then triturated and seeded in T-25 cm^2 flasks at a density of 1 brain (2 cortical hemispheres) per flask. Neurospheres are passaged once after 3 days. Cells from passage 2 are used to prepare two 96-well plates for the primary screen. Following the initial 48 hour incubation in OPC media, the OPCs are treated with 10 μM of 17β-estradiol, compound 4 and compound 21, along with vehicle control DMSO and positive control compounds including […] ciliary neurotrophic factor (CNTF) and 1 μM extracellular-signal-regulated (ERK) kinase inhibitor (MEKi). Cells are treated for a total of 4 days and the media is replaced once at the 48 hour mark with fresh compounds. After the 4 day treatment the cells are fixed with 4% paraformaldehyde and stained with Hoechst 33342 to visualize nuclei. Cells are also stained with anti-GFAP (GFAP=glial fibrillary acidic protein) antibodies to identify astrocytes. Cells are blocked with 3% normal goat serum followed by an overnight incubation of anti-rabbit GFAP antibody (1:500). Cells are labeled with a 1:1000 concentration of secondary goat anti-rabbit Alexa 647 fluorochrome antibody. Images are acquired using the Cellomics Arrayscan VTI. Twenty fields at 10× magnification are acquired per well and the cells expressing EGFP (enhanced green gluorescent protein; mature oligodendrocytes) and GFAP (astrocytes) are evaluated by neuronal profiling algorithm.
The extent of oligodendrocyte maturation is measured by the level of the PLP-EGFP reporter signal, along with the extent of process formation (FIGS. 1-4; legend for FIGS. 1 and 3 are presented below in Table 2). Proteolipid protein (PLP) is used as a biomarker because it is known to be expressed in mature oligodendrocytes and is a component of the myelin sheath. […] Compared to DMSO and all other compounds tested, including CNTF, the extent of process formation is also greatest for compound 21 (FIGS. 2 and 4).

SMILES | Gene expression DNER ([1]; 50 μM) [log2] | Gene expression OLIG2 ([2]; 50 μM) [log2] | Gene expression MBP ([3]; 50 μM) [log2] | Gene expression MOG ([4]; 50 μM) [log2] | Gene expression IL23R ([5]; 50 μM) [log2] | Gene expression TMEM108 ([6]; 50 μM) [log2] | Gene expression Connexin AF251047 ([7]; 50 μM) [log2] | Gene expression IL20RA ([8]; 50 μM) [log2] | Gene expression IL28A ([9]; 50 μM) [log2] | Effect on genes in signaling pathways involved in proliferation and differentiation of OPCs [10] | Potency in OPC differentiation (in words) ([11]; 10 μM) | also measured
COC[C@@H]1C[C@@H]2[C@H](CC[C@]3(C)C(O)CC[C@@H]23)c2ccc(O)cc21 (stereo partly drawn) [compound 4, (6R,8R,9S,13S,14S)-6-(methoxymethyl)-13-methyl-7,8,9,11,12,13,14,15,16,17-decahydro-6H-cyclopenta[a]phenanthrene-3,17-diol] | 5.16 | 4.98 | 4.72 | 3.99 | 3.62 | 3.59 | 3.38 | 3.17 | 1.35 | up-regulate | potent | Gene expression DNER ([1]; 100 μM): 5.51 log2; Gene expression OLIG2 ([2]; 100 μM): 4.59 log2; Gene expression MBP ([3]; 100 μM): 4.80 log2; Gene expression MOG ([4]; 100 μM): 4.28 log2; Gene expression IL23R ([5]; 100 μM): 4.86 log2; Gene expression TMEM108 ([6]; 100 μM): 3.62 log2; Gene expression Connexin AF251047 ([7]; 100 μM): 3.56 log2; Gene expression IL20RA ([8]; 100 μM): 3.38 log2; Gene expression IL28A ([9]; 100 μM): 1.96 log2
COCCCCCC[C@@H]1C[C@@H]2[C@H](CC[C@]3(C)C(O)CC[C@@H]23)c2ccc(O)cc21 (stereo partly drawn) [compound 21, (6R,8R,9S,13S,14S)-6-(6-methoxyhexyl)-13-methyl-7,8,9,11,12,13,14,15,16,17-decahydro-6H-cyclopenta[a]phenanthrene-3,17-diol] | 4.79 | 5.32 | 5.04 | 5.55 | 5.46 | 3.96 | 3.08 | 4.39 | 2.59 | up-regulate | potent | Gene expression DNER ([1]; 10 μM): 6.20 log2; Gene expression OLIG2 ([2]; 10 μM): 6.16 log2; Gene expression MBP ([3]; 10 μM): 6.07 log2; Gene expression MOG ([4]; 10 μM): 5.23 log2; Gene expression IL23R ([5]; 10 μM): 5.31 log2; Gene expression TMEM108 ([6]; 10 μM): 3.92 log2; Gene expression Connexin AF251047 ([7]; 10 μM): 2.74 log2; Gene expression IL20RA ([8]; 10 μM): 4.42 log2; Gene expression IL28A ([9]; 10 μM): 1.44 log2; Activity to differentiate oligodendrocytes compared to DMSO ([11]; 10 μM, 4 days (96 hours), mouse OPC culture, PLP-EGFP signal): 3 fold; Activity to differentiate oligodendrocytes compared to positive control CNTF ([11]; 10 μM, 4 days (96 hours), mouse OPC culture, CNTF 10 μM): 1.5 fold; Activity to differentiate oligodendrocytes compared to positive control MEKi ([11]; 10 μM, 4 days (96 hours), mouse OPC culture, MEKi 1 μM): 2.0 fold; Extent of process formation ([11]; compared to DMSO and all other compounds tested, including CNTF, FIGS. 2 and 4): greatest
